Bounds are passed on as bounds.

Assay [1] can be described thus: AZA in mouse model of HCL with transplantation of donor hematopoietic cells. The assay is classed as in vivo, mice. The following applies: AZA 5 mg/kg for 5 days followed by transplantation. The procedure:
Wildtype and HCL mice were treated with AZA 5 mg/kg for 5 days following by transplantation of donor hematopoietic cells. % myeloid donor chimerism was assessed by flow cytometry at 4- and 16-weeks post transplantation.

The subject of assay [2] is Lin−Sca1+c-Kit+ cells (LSK). Kind of assay: Annexin V/PI staining of HSPC fractions after AZA in vivo. Further details: species or system mice. Conditions: AZA 1.25, 2.5 and 5 mg/kg/d for 3 days. The procedure: Analysis was performed 24 h after last AZA administration. Gated from LSK. (B) Annexin V+(left) and AnnexinV/PI+(right) cells shown as % from LSK in the three different dose groups as compared to untreated controls. Data were pooled from 2 independent experiments and represent mean±SD (n=4 in the control group and n=7 in the AZA groups). Statistics were calculated Mann-Whitney test (*P<0.05; **P<0.01).
In vivo direct killing by apoptosis was confirmed by flow cytometry using Annexin V/PI to stain the HSPC fractions.

Another assay deals with LT-HSC, ST-HSC, MPP. The assay can be described thus: Ki67 expression and HSPC depletion after AZA (dose titration). The assay is classed as in vivo, C57BL/6 mice. The procedure:
A. Schematic of treatment protocol. […] 24 h after last AZA injection BM was analyzed for HSC-depletion and Ki67 intracellular protein expression. B. […] C. Mean fluorescence intensity (MFI) of Ki67 intracellular protein expression in LT-HSC, ST-HSC, MPP2, MPP3/4 and myeloid progenitors (MP). Data were pooled from 2 independent experiments and represent mean±SD (n=7). Statistics were calculated Mann-Whitney test (*P<0.05; **P<0.01; ***P<0.001). D. Schematic of in vitro culture protocol. Mouse Lin^−Sca1+c-Kit^+CD48^− or human Lin^−CD34^+CD38^− were FACS-sorted and plated in 96-well flat bottom plate, coated with fibronectin and containing 100 μl of HSC media/well, supplemented with 10 ng/ml SCF and 100 ng/ml TPO. Different concentrations of AZA (0.1, 0.5 and 1 μg/ml) were added on two consecutive days (at baseline and 24 h after cell culturing) and cell counting, and cell imaging was performed every 6 h for total of 48 h on ImagExpress Pico automated cell counting system. After 48 h % live/dead cells was assessed by using EarlyTox Live/Dead Assay Kit. E. Proliferation curves of FACS-sorted mouse Lin^−Sca1^+c-Kit^+CD48^− in the presence of indicated concentrations of AZA (left) and cell viability as assessed by % of Calcein AM positive cells after 48 h of cell culture (right). Data represent mean±SD from 3 independent experiments. Statistics were calculated with Mann-Whitney test (*P<0.05; **P<0.01; ***P<0.001). F. Proliferation curves of FACS-sorted human Lin^−CD34^+CD38^− cells in the presence of indicated concentrations of AZA (left) and cell viability as assessed by % of Calcein AM positive cells after 48 h of cell culture (right). Data represent mean±SD from 2 independent experiments. Statistics were calculated with Mann-Whitney test (**P<0.01; ***P<0.001).
Analysis was performed 24 h after last AZA administration. Gated from lineage negative (Lin^−) live cells. Lin^−Sca1^+c-Kit^++ cells (LSK), long-term hematopoietic stem cells (LT-HSC). […] Data were pooled from 2 independent experiments and represent mean±SD (n=7). Statistics were calculated Mann-Whitney test (**P<0.01; ***P<0.001).
In vivo administration of therapeutic agents and cytokines. Anti-mouse CD117 mAbs, clone ACK2 (BioXcell) and 2B8 (BioXcell), were injected retroorbital as a single dose of 500 μg following intraperitoneal administration of Diphenhydramine (Benadryl). Anti CD4 (clone GK1.5, BioXcell) and anti-CD8 (clone YTS169.4, BioXcell) were administered intraperitoneally at a dose of 100 μg in 100 μl phosphate-buffered saline (PBS). 5-Azacytidine (AZA) ([…] Technologies), was reconstituted in PBS to a concentration of 5 mg/ml and kept at −20° for up to 1 month. Before each injection, AZA was thawed for 10-15 min at room temperature (RT), resuspended in PBS and administered intraperitoneally in 100 μl. […]

As for `Nc1ncn([C@@H]2O[C@H](CO)[C@@H](O)[C@H]2O)c(=O)n1` [AZA, 5-Azacytidine], the therapeutic activity entry in assay [1] is on record as “shows therapeutic activity”. Also, in assay [2], the “apoptosis and apoptotic cell death in the HSPC compartment” value is recorded as “dose dependent”. For the same molecule, the “level of HSPC (LSK) and LT-HSC after depletion” value in the assay on LT-HSC, ST-HSC, MPP (AZA 1.25 mg/kg/d for 3 days, 24 h after last dose) is reported as −25 % of baseline. In addition, the “normalization of Ki67 in HSC and MPP” value in the assay on LT-HSC, ST-HSC, MPP (AZA 5 mg/kg/d for 5 days) was at most 10 days. The “Ki67 in HSC and MPP” value with LT-HSC, ST-HSC, MPP (AZA 5 mg/kg/d for 5 days, day 6) was “significant increase of Ki67”. The “Ki67 protein expression in HSC, MPP and MP compartments” value in the assay with LT-HSC, ST-HSC, MPP (AZA 1.25, 2.5 and 5 mg/kg/d for 3 days (all three dose regimens)) was “significant increase in Ki67 protein expression”.

For the origin of these results see patent US12564609B2, “Hematopoietic stem cell engraftment with a combination of agents” (The Board of Trustees of the Leland Stanford Junior …, priority 2020, dated 2026).
